Molecular target: Bcl-2 G101V (Homo sapiens, UniProt P10415, G101V)
Test: Bcl-2 G101V inhibition, fluorescence polarization (Flu-BIM tracer) binding assay
Conditions: FP; 20 nM Bcl2, 5 nM Flu-BIM, 1 h incubation; read-out: Bcl-2 G101V (FP)

Row | Structure (SMILES) | IC50 [nM]
1 | CN(C)c1ccccc1-c1csc(C2=C(CN3CCN(c4ccc(C(=O)NS(=O)(=O)c5ccc(NC[C@H]6COCCO6)c([N+](=O)[O-])c5)c(Oc5cnc6[nH]ccc6c5)c4)CC3)CCC(C)(C)C2)c1 [Example 58, (S)—N-((4-(((1,4-dioxan-2-yl)methyl)amino)-3-nitrophenyl)sulfonyl)-2-((1H-pyrrolo[2,3-b]pyridin-5-yl)oxy)-4-(4-((2-(4-(2-(dimethylamino)phenyl)thiophen-2-yl)-4,4-dimethylcyclohex-1-en-1-yl)methyl)piperazin-1-yl)benzamide] | 34.1
2 | CC1(C)CCC(CN2CCN(c3ccc(C(=O)NS(=O)(=O)c4ccc(NCC5CCOCC5)c([N+](=O)[O-])c4)c(Oc4cnc5[nH]ccc5c4)c3)CC2)=C(c2ccsc2CN2CCOCC2)C1 [Example 25, 2-((1H-pyrrolo[2,3-b]pyridin-5-yl)oxy)-4-(4-((4,4-dimethyl-2-(2-(morpholinomethyl)thiophen-3-yl)cyclohex-1-en-1-yl)methyl)piperazin-1-yl)-N-((3-nitro-4-(((tetrahydro-2H-pyran-4-yl)methyl)amino)phenyl)sulfonyl)benzamide] | 39.1
3 | CC1(C)CCC(CN2CCN(c3ccc(C(=O)NS(=O)(=O)c4ccc(NC[C@H]5COCCO5)c([N+](=O)[O-])c4)c(Oc4cnc5[nH]ccc5c4)c3)CC2)=C(c2cc(-c3ccc(Cl)cc3F)cs2)C1 [Example 44, (S)—N-((4-(((1,4-dioxan-2-yl)methyl)amino)-3-nitrophenyl)sulfonyl)-2-((1H-pyrrolo[2,3-b]pyridin-5-yl)oxy)-4-(4-((2-(4-(4-chloro-2-fluorophenyl)thiophen-2-yl)-4,4-dimethylcyclohex-1-en-1-yl)methyl)piperazin-1-yl)benzamide] | 46.3
4 | CC1(C)CCC(CN2CCN(c3ccc(C(=O)NS(=O)(=O)c4ccc(NC[C@H]5CC[C@](C)(O)CC5)c([N+](=O)[O-])c4)c(Oc4cnc5[nH]ccc5c4)c3)CC2)=C(c2cc(-c3c(F)cc(C(C)(C)C(=O)O)cc3F)cs2)C1 [Example 82, 2-(4-(5-(2-((4-(3-((1H-pyrrolo[2,3-b]pyridin-5-yl)oxy)-4-(((4-((((1r,4r)-4-hydroxy-4-methylcyclohexyl)methyl)amino)-3-nitrophenyl)sulfonyl)carbamoyl)phenyl)piperazin-1-yl)methyl)-5,5-dimethylcyclohex-1-en-1-yl)thiophen-3-yl)-3,5-difluorophenyl)-2-methylpropanoic acid] | 22.3
5 | CC1(C)CCC(CN2CCN(c3ccc(C(=O)NS(=O)(=O)c4ccc(NC[C@H]5CC[C@](C)(O)CC5)c([N+](=O)[O-])c4)c(Oc4cnc5[nH]ccc5c4)c3)CC2)=C(c2cc(-c3ccc(C(F)F)cc3)cs2)C1 [Example 49, 2-((1H-pyrrolo[2,3-b]pyridin-5-yl)oxy)-4-(4-((2-(4-(4-(difluoromethyl)phenyl)thiophen-2-yl)-4,4-dimethylcyclohex-1-en-1-yl)methyl)piperazin-1-yl)-N-((4-((((1r,4r)-4-hydroxy-4-methylcyclohexyl)methyl)amino)-3-nitrophenyl)sulfonyl)benzamide] | 43.6
6 | CC1(C)CCC(CN2CCN(c3ccc(C(=O)NS(=O)(=O)c4ccc(NC[C@H]5CC[C@](C)(O)CC5)c([N+](=O)[O-])c4)c(Oc4cnc5[nH]ccc5c4)c3)CC2)=C(c2cc(-c3c(F)ccc(F)c3F)cs2)C1 [Example 54, 2-((1H-pyrrolo[2,3-b]pyridin-5-yl)oxy)-4-(4-((4,4-dimethyl-2-(4-(2,3,6-trifluorophenyl)thiophen-2-yl)cyclohex-1-en-1-yl)methyl)piperazin-1-yl)-N-((4-((((1r,4r)-4-hydroxy-4-methylcyclohexyl)methyl)amino)-3-nitrophenyl)sulfonyl)benzamide] | 33.2
7 | CC1(C)CCC(CN2CCN(c3ccc(C(=O)NS(=O)(=O)c4ccc(NC[C@H]5CC[C@](C)(O)CC5)c([N+](=O)[O-])c4)c(Oc4cnc5[nH]ccc5c4)c3)CC2)=C(c2cc(-c3ccc(C(C)(O)C(F)(F)F)cc3F)cs2)C1 (stereo partly shown) [Example 78, 2-((1H-pyrrolo[2,3-b]pyridin-5-yl)oxy)-4-(4-((2-(4-(2-fluoro-4-(1,1,1-trifluoro-2-hydroxypropan-2-yl)phenyl)thiophen-2-yl)-4,4-dimethylcyclohex-1-en-1-yl)methyl)piperazin-1-yl)-N-((4-((((1r,4r)-4-hydroxy-4-methylcyclohexyl)methyl)amino)-3-nitrophenyl)sulfonyl)benzamide] | 33.2
8 | CC(C)c1ccccc1-c1csc(C2=C(CN3CCN(c4ccc(C(=O)NS(=O)(=O)c5ccc(NC[C@H]6COCCO6)c([N+](=O)[O-])c5)c(Oc5cnc6[nH]ccc6c5)c4)CC3)CCC(C)(C)C2)c1 [Example 39, (S)—N-((4-(((1,4-dioxan-2-yl)methyl)amino)-3-nitrophenyl)sulfonyl)-2-((1H-pyrrolo[2,3-b]pyridin-5-yl)oxy)-4-(4-((2-(4-(2-isopropylphenyl)thiophen-2-yl)-4,4-dimethylcyclohex-1-en-1-yl)methyl)piperazin-1-yl)benzamide] | 36
9 | CC1(C)CCC(CN2CCN(c3ccc(C(=O)NS(=O)(=O)c4ccc(NC[C@H]5CC[C@](C)(O)CC5)c([N+](=O)[O-])c4)c(Oc4cnc5[nH]ccc5c4)c3)CC2)=C(c2cc(-c3ccc(C(O)(C(F)(F)F)C(F)(F)F)cc3)cs2)C1 [Example 60, 2-((1H-pyrrolo[2,3-b]pyridin-5-yl)oxy)-4-(4-((2-(4-(4-(1,1,1,3,3,3-hexafluoro-2-hydroxypropan-2-yl)phenyl)thiophen-2-yl)-4,4-dimethylcyclohex-1-en-1-yl)methyl)piperazin-1-yl)-N-((4-((((1r,4r)-4-hydroxy-4-methylcyclohexyl)methyl)amino)-3-nitrophenyl)sulfonyl)benzamide] | 34.1
10 | CC1(C)CCC(CN2CCN(c3ccc(C(=O)NS(=O)(=O)c4ccc(NC[C@H]5CC[C@](C)(O)CC5)c([N+](=O)[O-])c4)c(Oc4cnc5[nH]ccc5c4)c3)CC2)=C(c2cc(-c3cc(F)c(F)c(F)c3)cs2)C1 [Example 45, 2-((1H-pyrrolo[2,3-b]pyridin-5-yl)oxy)-4-(4-((4,4-dimethyl-2-(4-(3,4,5-trifluorophenyl)thiophen-2-yl)cyclohex-1-en-1-yl)methyl)piperazin-1-yl)-N-((4-((((1r,4r)-4-hydroxy-4-methylcyclohexyl)methyl)amino)-3-nitrophenyl)sulfonyl)benzamide] | 49
11 | CC1(C)CCC(CN2CCN(c3ccc(C(=O)NS(=O)(=O)c4ccc(NC[C@H]5COCCO5)c([N+](=O)[O-])c4)c(Oc4cnc5[nH]ccc5c4)c3)CC2)=C(c2cc(-c3c(F)cc(C(C)(C)O)cc3F)cs2)C1 [Example 64, (S)—N-((4-(((1,4-dioxan-2-yl)methyl)amino)-3-nitrophenyl)sulfonyl)-2-((1H-pyrrolo[2,3-b]pyridin-5-yl)oxy)-4-(4-((2-(4-(2,6-difluoro-4-(2-hydroxypropan-2-yl)phenyl)thiophen-2-yl)-4,4-dimethylcyclohex-1-en-1-yl)methyl)piperazin-1-yl)benzamide] | 37
12 | CC1(C)CCC(CN2CCN(c3ccc(C(=O)NS(=O)(=O)c4ccc(NC[C@H]5CC[C@@](C)(O)CC5)c([N+](=O)[O-])c4)c(Oc4cnc5[nH]ccc5c4)c3)CC2)=C(c2cc(-c3ccc(F)cc3)cs2)C1 [Example 36, 2-((1H-pyrrolo[2,3-b]pyridin-5-yl)oxy)-4-(4-((2-(4-(4-fluorophenyl)thiophen-2-yl)-4,4-dimethylcyclohex-1-en-1-yl)methyl)piperazin-1-yl)-N-((4-((((1s,4s)-4-hydroxy-4-methylcyclohexyl)methyl)amino)-3-nitrophenyl)sulfonyl)benzamide] | 46.2
13 | CC1(C)CCC(CN2CCN(c3ccc(C(=O)NS(=O)(=O)c4ccc(NCC5CCOCC5)c([N+](=O)[O-])c4)c(Oc4cnc5[nH]ccc5c4)c3)CC2)=C(c2ccc(CN3CCOCC3)s2)C1 [Example 26, 2-((1H-pyrrolo[2,3-b]pyridin-5-yl)oxy)-4-(4-((4,4-dimethyl-2-(5-(morpholinomethyl)thiophen-2-yl)cyclohex-1-en-1-yl)methyl)piperazin-1-yl)-N-((3-nitro-4-(((tetrahydro-2H-pyran-4-yl)methyl)amino)phenyl)sulfonyl)benzamide] | 57.8
14 | CC1(C)CCC(CN2CCN(c3ccc(C(=O)NS(=O)(=O)c4ccc(NC[C@H]5COCCO5)c([N+](=O)[O-])c4)c(Oc4cnc5[nH]ccc5c4)c3)CC2)=C(c2cc3c(s2)CCN(c2ccc(F)cc2)C3)C1 [Example 15, (S)—N-((4-(((1,4-dioxan-2-yl)methyl)amino)-3-nitrophenyl)sulfonyl)-2-((1H-pyrrolo[2,3-b]pyridin-5-yl)oxy)-4-(4-((2-(5-(4-fluorophenyl)-4,5,6,7-tetrahydrothieno[3,2-c]pyridin-2-yl)-4,4-dimethylcyclohex-1-en-1-yl)methyl)piperazin-1-yl)benzamide] | 65.1
15 | CC1(C)CCC(CN2CCN(c3ccc(C(=O)NS(=O)(=O)c4ccc(NC[C@H]5COCCO5)c([N+](=O)[O-])c4)c(Oc4cnc5[nH]ccc5c4)c3)CC2)=C(c2cc(CN3CCOCC3)cs2)C1 [Example 22, (S)—N-((4-(((1,4-dioxan-2-yl)methyl)amino)-3-nitrophenyl)sulfonyl)-2-((1H-pyrrolo[2,3-b]pyridin-5-yl)oxy)-4-(4-((4,4-dimethyl-2-(4-(morpholinomethyl)thiophen-2-yl)cyclohex-1-en-1-yl)methyl)piperazin-1-yl)benzamide] | 42.8
16 | CC1(C)CCC(CN2CCN(c3ccc(C(=O)NS(=O)(=O)c4ccc(NC[C@H]5CC[C@](C)(O)CC5)c([N+](=O)[O-])c4)c(Oc4cnc5[nH]ccc5c4)c3)CC2)=C(c2cc(-c3ccc4c(c3)CCC4(C)O)cs2)C1 (stereo partly shown) [Example 79, 2-((1H-pyrrolo[2,3-b]pyridin-5-yl)oxy)-4-(4-((2-(4-(1-hydroxy-1-methyl-2,3-dihydro-1H-inden-5-yl)thiophen-2-yl)-4,4-dimethylcyclohex-1-en-1-yl)methyl)piperazin-1-yl)-N-((4-((((1r,4r)-4-hydroxy-4-methylcyclohexyl)methyl)amino)-3-nitrophenyl)sulfonyl)benzamide] | 22.1
